Measurements published in patent US12624040B2, “Compositions of substituted pyrazolopyrimidines and uses thereof” (KSQ Therapeutics, Inc., priority 2020, dated 2026).

Tests used:
[1] = Aqueous solubility / BCS classification; format: physicochemical; settings: for BCS class: low solubility/high permeability; for Solubility in water: physiological pHs (from pH 1.5-8.0)
Source text: Studies of these compounds indicate that these compounds are BCS class II compounds (low solubility/high permeability). […] Poor bioavailability is also often accompanied by highly variable patient blood levels and unpredictable dose/therapeutic effects due to erratic absorption of the drug by the patient. Accordingly, a need exists for compositions and methods to increase the solubility of these compounds.

Bioavailability (Bioavailability)	BCS class [1]	Solubility in water [1]	SMILES
low bioavailability	BCS class II	poorly soluble	COc1ncnc(C2CC2)c1-c1ncc2cnn(Cc3ccc(-c4nc(C(F)(F)F)cn4C(C)C)cc3)c2n1 [Formula II, 6-(4-cyclopropyl-6-methoxypyrimidin-5-yl)-1-(4-(1-isopropyl-4-(trifluoromethyl)-1H-imidazol-2-yl)benzyl)-1H-pyrazolo[3,4-d]pyrimidine]
low bioavailability	BCS class II	poorly soluble	COc1ncnc(C2CC2)c1-c1ncc2cnn(Cc3ccc(-n4nc(C(F)(F)F)cc4C)cc3)c2n1 [Formula III, 6-(4-cyclopropyl-6-methoxypyrimidin-5-yl)-1-(4-(5-methyl-3-(trifluoromethyl)-1H-pyrazol-1-yl)benzyl)-1H-pyrazolo[3,4-d] pyrimidine]
